From patent US11866405B2, “Substituted indazoles as IRAK4 inhibitors” (AstraZeneca AB, priority 2020, dated 2024)

Key:
[1] = molecular target: human recombinant IRAK4 protein (Homo sapiens (Human), UniProt Q9NWZ3); test: IRAK4 enzyme assay (mass spectrometry readout); format: biochemical; settings: 3 mM ATP, 0.2 nM enzyme; geometric mean of at least n=2, * single experiment
Experimental: Potency of IRAK4 Inhibitor Compounds in IRAK4 Enzyme Assay
The inhibitory activity of compounds against IRAK4 were determined in an enzymatic assay using mass spectrometry readout. Ten point half-log compound concentration response curves, with a top concentration of 1 μM or 10 μM, were generated from 10 mM stocks of compound solubilized in DMSO using an Echo 655 (Labcyte Inc) and added to 384 well assay plates (Greiner #781280). To the assay plates, 10 μL of human recombinant IRAK4 protein (Life Technologies #PV4002) diluted to a final concentration of 0.2 nM in assay buffer (50 mM Tris-HCl pH 7.4, 10 mM MgCl, 5 mM glutathione, 0.01% BSA, 3 mM ATP) was added. The enzyme was incubated with the compounds at room temperature for 15 minutes before a peptide substrate ([…], Innovagen custom synthesis, 10 mM in DMSO) was added to each well to a final concentration of 10 μM using an Echo 655 (Labcyte Inc). After two hours at room temperature, the reaction was stopped with 90 μL of 0.4% formic acid (Merck #33015). The unphosphorylated and phosphorylated peptide were measured by LC-MS/MS on a Waters TQ-S mass spectrometer. Peaks were integrated using the TargetLynx software and the ratios between phosphorylated and unphosphorylated peptides were calculated. Curves were fitted and compound potencies determined in Genedata Screener 15 (Genedata AG). Data presented are the geometric mean of at least n=2, or as denoted by an * are obtained from a single experiment.

[2] = molecular target: IRAK4 auto-phosphorylation (Homo sapiens (Human), UniProt Q9NWZ3); test: IRAK4 phosphorylation cell assay in IL-1β-stimulated Karpas-299 cells; format: cell-based; settings: IL-1β 22.7 ng/mL, pIRAK4 (Thr345/Ser346), geometric mean of at least 2 experiments
Experimental: IRAK4 Phosphorylation Cell Assay
The activation of IRAK4 by TLR or IL-1R ligands leads to IRAK4 auto-phosphorylation, which can be prevented by IRAK4 kinase inhibitors. The effect of IRAK4 inhibitor compounds on IRAK4 auto-phosphorylation was assessed in IL-1β-stimulated Karpas-299 cells as a measurement of cellular potency. Karpas-299 cells were cultured in RPMI 1640 (Gibco 61870-010) containing 10% FBS (Gibco #10270). Cells were plated at 2×10^4 cells per well in poly-D-lysine coated 384 well plates (Corning #356663) to which compounds had been added at various concentrations (10 point half log dose response with a final top concentration of 30 μM) using an Echo 655 (Labcyte Inc). Cells were centrifuged (250 g, 4 mins), incubated at 37° C. for 1 h, then stimulated with 22.7 ng/mL recombinant IL-1β (R&D Systems, #201-LB-025) at 37° C. for 10 mins, followed by fixation in 4% paraformaldehyde for 10 mins and permeabilization in ice-cold 70% MeOH for 30 mins. Cells were washed twice with phosphate-buffered saline (PBS) on a BlueWasher (BlueCatBio) then blocked with PBS containing 10% FBS for 20 mins. Blocking solution was removed with a BlueWasher and cells were stained with anti-pIRAK4 (Thr345/Ser346) (CST, #11927, 1:400) in blocking buffer with 0.05% Tween-20 for 1 h, then washed twice with PBS containing 0.05% Tween-20 on a BlueWasher, followed by staining with a Alexa 647-conjugated secondary anti-rabbit IgG antibody (CST, #4414, 1:2,000) and Hoechst 33342 (Sigma, 1:2,000) in blocking buffer with 0.05% Tween-20 for 30 mins. Finally, the cells were washed twice with PBS containing 0.05% Tween-20 and imaged on an ImageXpress Micro (Molecular Devices) with a 10× air objective using the appropriate filters. Images were analysed in Columbus (PerkinElmer) and the fluorescence intensity per cell from the secondary antibody was quantified. The quantified data were analysed in Genedata Screener 15 (Genedata AG). […] IC50 values are the geometric mean of at least 2 experiments.

Chain of human recombinant IRAK4 protein (Q9NWZ3 whole entry): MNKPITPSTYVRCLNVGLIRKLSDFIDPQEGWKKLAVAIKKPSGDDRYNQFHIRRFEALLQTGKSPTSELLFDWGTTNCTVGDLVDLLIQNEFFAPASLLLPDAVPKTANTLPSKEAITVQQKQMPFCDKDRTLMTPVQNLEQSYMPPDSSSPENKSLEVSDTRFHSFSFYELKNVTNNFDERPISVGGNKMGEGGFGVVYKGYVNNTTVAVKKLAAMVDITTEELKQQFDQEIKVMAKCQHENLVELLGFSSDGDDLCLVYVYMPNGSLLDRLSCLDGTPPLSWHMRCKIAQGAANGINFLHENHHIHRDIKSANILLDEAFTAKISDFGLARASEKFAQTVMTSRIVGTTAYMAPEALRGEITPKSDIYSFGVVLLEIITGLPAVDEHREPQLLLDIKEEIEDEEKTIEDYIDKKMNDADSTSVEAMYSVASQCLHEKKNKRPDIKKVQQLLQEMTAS
Chain of IRAK4 auto-phosphorylation (Q9NWZ3 whole entry): as above

IC50 [1] | IC50 [2] | Molecule
0.2 nM | 26 nM | COc1cc2nn([C@H]3CC[C@@]4(CC3)CC(=O)N(C)C4)cc2cc1C(=O)Nc1cnn2cccnc12 [Example 87, 6-methoxy-2-((5s,8s)-2-methyl-3-oxo-2-azaspiro[4.5]decan-8-yl)-N-(pyrazolo[1,5-a]pyrimidin-3-yl)-2H-indazole-5-carboxamide]
0.5 nM | 64 nM | O=C(Nc1cnn2cccnc12)c1cc2cn(C3CCC4(CC3)CC(O)C4)nc2cc1OC1CC1 (single isomer, unassigned) [Example 47, 6-Cyclopropoxy-2-(2-hydroxyspiro[3.5]nonan-7-yl)-N-(pyrazolo[1,5-a]pyrimidin-3-yl)-2H-indazole-5-carboxamide]
0.6 nM | 56 nM | O=C(Nc1cnn2cccnc12)c1cc2cn(C3CCC4(CC3)CC(O)C4)nc2cc1OC1CC1 (single isomer, unassigned) [Example 46, 6-Cyclopropoxy-2-(2-hydroxyspiro[3.5]nonan-7-yl)-N-(pyrazolo[1,5-a]pyrimidin-3-yl)-2H-indazole-5-carboxamide]
0.9 nM | 16 nM | COc1cc2nn([C@H]3CC[C@H](N(C)C(=O)[C@@H](C)O)CC3)cc2cc1C(=O)Nc1cnn2cccnc12 [Example 58]
0.3 nM | 13 nM | COc1cc2nn([C@H]3CC[C@H](N(C)C(=O)N4CC[C@H](O)C4)CC3)cc2cc1C(=O)Nc1cnc2cccnn12 [Example 116, 2-((1S,4r)-4-((S)-3-Hydroxy-N-methylpyrrolidine-1-carboxamido)cyclohexyl)-N-(imidazo[1,2-b]pyridazin-3-yl)-6-methoxy-2H-indazole-5-carboxamide]
0.3 nM | 22 nM | COc1cc2nn([C@H]3CC[C@H](N(C)C(=O)N4CC[C@@H](O)C4)CC3)cc2cc1C(=O)Nc1cnc2cccnn12 [Example 117, 2-((1R,4r)-4-((R)-3-Hydroxy-N-methylpyrrolidine-1-carboxamido)cyclohexyl)-N-(imidazo[1,2-b]pyridazin-3-yl)-6-methoxy-2H-indazole-5-carboxamide]
2.5 nM | 52 nM | COc1cc2nn([C@H]3CC[C@H](O)[C@H](C)C3)cc2cc1C(=O)Nc1cnc2cccnn12 (single isomer, unassigned) [Example 78]
3.5 nM | 49 nM | COc1cc2nn([C@H]3CCC[C@](C)(O)C3)cc2cc1C(=O)Nc1cnn2cccnc12 (single isomer, unassigned) [Example 53]
0.3 nM | 12 nM | COc1cc2nn(C3CCC4(CC3)COC(=O)N4C)cc2cc1C(=O)Nc1cnc2cccnn12 (single isomer, unassigned) [Example 75, N-(Imidazo[1,2-b]pyridazin-3-yl)-6-methoxy-2-(1-methyl-2-oxo-3-oxa-1-azaspiro[4.5]decan-8-yl)-2H-indazole-5-carboxamide]
5.2 nM | 101 nM | COc1cc2nn([C@H]3CC[C@@H](O)C[C@@H]3C)cc2cc1C(=O)Nc1cnc2cccnn12 [Example 90, 2-((1S,2S,4R)-4-hydroxy-2-methylcyclohexyl)-N-(imidazo[1,2-b]pyridazin-3-yl)-6-methoxy-2H-indazole-5-carboxamide]
6.5 nM | 96 nM | COc1cc2nn([C@H]3CCC[C@@H](O)[C@H]3C)cc2cc1C(=O)Nc1cnc2cccnn12 (single isomer, unassigned) [Example 105]
0.8 nM | 50 nM | O=C(Nc1cnc2cccnn12)c1cc2cn([C@H]3CC[C@@H](O)CC3)nc2cc1OC1CC1 [Example 85, 6-Cyclopropoxy-2-((1s,4s)-4-hydroxycyclohexyl)-N-(imidazo[1,2-b]pyridazin-3-yl)-2H-indazole-5-carboxamide]
0.4 nM | 40 nM | O=C(Nc1cnc2cccnn12)c1cc2cn([C@H]3CC[C@H](O)CC3)nc2cc1OC1CC1 [Example 84, 6-Cyclopropoxy-2-((1r,4r)-4-hydroxycyclohexyl)-N-(imidazo[1,2-b]pyridazin-3-yl)-2H-indazole-5-carboxamide]

The remaining lines, values behind:

Molecule | IC50 [1] | IC50 [2]
COc1cc2nn([C@H]3CC[C@@]4(CCC(=O)N4C)CC3)cc2cc1C(=O)Nc1cnc2cccnn12 [Example 1, N-(Imidazo[1,2-b]pyridazin-3-yl)-6-methoxy-2-((5r,8r)-1-methyl-2-oxo-1-azaspiro[4.5]decan-8-yl)-2H-indazole-5-carboxamide] | 0.1 nM | 5 nM
6-Cyclopropoxy-2-((1s,4s)-4-(N-methylacetamido)cyclohexyl)-N-(pyrazolo[1,5-a]pyrimidin-3-yl)-2H-indazole-5-carboxamide [Example 32] | 10.6 nM | 257 nM
CC1(O)CC2(CCC(n3cc4cc(C(=O)Nc5cnn6cccnc56)c(OC5CC5)cc4n3)CC2)C1 (single isomer, unassigned) [Example 16, 6-Cyclopropoxy-2-(2-hydroxy-2-methylspiro[3.5]nonan-7-yl)-N-(pyrazolo[1,5-a]pyrimidin-3-yl)-2H-indazole-5-carboxamide] | 0.6 nM | 77 nM
COc1cc2nn([C@H]3CC[C@@H](C(=O)N(C)C)CC3)cc2cc1C(=O)Nc1cnc2cccnn12 [Example 3, 2-((1s,4s)-4-(Dimethylcarbamoyl)cyclohexyl)-N-(imidazo[1,2-b]pyridazin-3-yl)-6-methoxy-2H-indazole-5-carboxamide] | 8.5 nM | 272 nM
CC1(O)CC2(CCC(n3cc4cc(C(=O)Nc5cnn6cccnc56)c(OC5CC5)cc4n3)CC2)C1 (single isomer, unassigned) [Example 15, 6-Cyclopropoxy-2-(2-hydroxy-2-methylspiro[3.5]nonan-7-yl)-N-(pyrazolo[1,5-a]pyrimidin-3-yl)-2H-indazole-5-carboxamide] | 0.5 nM | 91 nM
C[C@H]1C[C@@H](O)CC[C@@H]1n1cc2cc(C(=O)Nc3cnn4cccnc34)c(OC3CC3)cc2n1 (single isomer, unassigned) [Example 44] | 0.8 nM | 42 nM
COc1cc2nn([C@H]3CC[C@H](N(C)C(=O)C(C)(C)O)CC3)cc2cc1C(=O)Nc1cnn2cnccc12 [Example 99, 2-((1r,4r)-4-(2-Hydroxy-N,2-dimethylpropanamido)cyclohexyl)-6-methoxy-N-(pyrazolo[1,5-c]pyrimidin-3-yl)-2H-indazole-5-carboxamide] | 1.2 nM | 35 nM
COc1cc2nn([C@H]3CC[C@H](C(=O)N(C)C)CC3)cc2cc1C(=O)Nc1cnc2cccnn12 [Example 4, 2-((1r,4r)-4-(Dimethylcarbamoyl)cyclohexyl)-N-(imidazo[1,2-b]pyridazin-3-yl)-6-methoxy-2H-indazole-5-carboxamide] | < 0.3 nM | 17 nM
COc1cc2nn([C@H]3CC[C@@H](N(C)C(C)=O)CC3)cc2cc1C(=O)Nc1cnc2cccnn12 [Example 22, N-(Imidazo[1,2-b]pyridazin-3-yl)-6-methoxy-2-((1s,4s)-4-(N-methylacetamido)cyclohexyl)-2H-indazole-5-carboxamide] | 5.1 nM | 268 nM
COc1cc2nn([C@H]3CC[C@]4(CCC(=O)N4C)CC3)cc2cc1C(=O)Nc1cnc2cccnn12 [Example 2, N-(Imidazo[1,2-b]pyridazin-3-yl)-6-methoxy-2-((5s,8s)-1-methyl-2-oxo-1-azaspiro[4.5]decan-8-yl)-2H-indazole-5-carboxamide] | 3.4 nM | 124 nM
